Assay results: patent US20250170156A1, “TOLL-LIKE RECEPTOR LIGANDS” (INIMMUNE CORPORATION, priority 2018, published 2025)
Structures can show the parent of a compound that is named as a salt.

Assays:
primary hPBMCs [1] = assay: Induction of MIP-1β from primary hPBMCs (ELISA)
primary hPBMCs [2] = assay: Induction of RANTES from primary hPBMCs (ELISA)
hTLR4 = biological target: T1, hTLR4 (Homo sapiens, UniProt O00206+Q9Y6Y9); assay: HEK hTLR4 NF-κB driven SEAP reporter assay (hTLR4 activation); assay type: cell-based; details: 18 hours
T1 construct: expressed in transfected cells; host or cells: HEK cells expressing hTLR4 and an NF-κB driven SEAP reporter
Experimental: hTLR4 activation. HEK hTLR4-expressing cells were treated with 100 μM concentration of test compound followed by a 5-fold dilution series. HEK hTLR4-expressing cells also contained an NF-κB driven SEAP reporter and were stimulated with the indicated concentration (FIG. 1A-1C) of the test compound for 18 hours followed by assessment of the cellular supernatant for SEAP by a Quantikine SEAP assay (InvivoGen). The SEAP assay was used to look at secretion of the NF-κB driven alkaline-phosphatase reporter gene in response to TLR4 activation by the compounds and results are interpreted both in terms of potency of the compounds to induce SEAP activation (i.e. potency where a lower EC50 indicates higher potency) and efficacy for receptor activation (i.e. maximal SEAP induction).

[3] = system: influenza virus antigen A/Victoria/210/2009-H3N2; assay: Vaccine adjuvant study, murine influenza virus vaccination model; assay type: in vivo, BALB/c mice; details: intramuscular, 0.1, 0.01 or 0.001 μg with 0.2 μg antigen, 14 days after single immunization, 2% glycine
Experimental: Vaccine adjuvant study. Compounds 2, 4, 5 and 7 were evaluated as vaccine adjuvant in a murine influenza virus vaccination model. 7-9 week old BALB/c mice (10 mice per group) were injected intramuscularly in a hind limb with the influenza virus antigen A/Victoria/210/2009-H3N2 (0.2 μg/mouse) with or without 0.1, 0.01 or 0.001 μg of compound 2, 4, 5 or 7 (formulated in 2% glycine). Fourteen days after a single immunization, animals were bled via the submandibular vein and serum was collected to assay for A/Victoria specific antibodies by ELISA assay (FIG. 7).

mRAW264.7 cells = assay: Induction of MIP-1β cytokine from mRAW264.7 cells (ELISA); assay type: cell-based; details: Mus musculus, 18 hours, read-out: mRaw MIP-1β EC50
Experimental: Induction of MIP-1β cytokine from mRAW264.7 cells. […] Treatments started at 20 μM concentration with a 5-fold serial dilution until 3.2768E-09 μM. Supernatants were harvested and analyzed for production of MIP-1β via ELISA (R& D Systems-cat #DY451).

hMM6 cells = assay: Induction of MIP-1β cytokine from hMM6 cells (ELISA); assay type: cell-based; details: Homo sapiens, 18 hours
Experimental: Induction of […] cytokine from hMM6 cells. The compounds were next tested in the established MM6 potency assay measuring MIP-1β cytokine production as an output measure of compound potency. Human monocytic cell line, Mono-Mac-6 (hMM6) was obtained from DSMZ (Brunswick, Germany). […] Treatments started at a 100 µM concentration proceeded with a 16-point, 5-fold dilution series. Supernatants were harvested and analyzed for production of MIP-1β via ELISA (R&D systems, catalog #DY271).

[4] = Stability of aqueous formulations by reverse-phase-HPLC; assay type: physicochemical; details: 40° C.; formulated in 2.5% glycine (FIGS. 9, 12)
Experimental: Formulation. The salted compound was accurately weighed into depyrogenated glass vials, and the required volume of aqueous vehicle added to attain the desired concentration. Vials were placed in a sonication bath (sonication bath temperature≤45° C.) to assist solubility and reduce particle size to achieve sterile filtration without significant loss of compound. Once the solution appeared homogeneous, the particle size was periodically monitored by dynamic light scattering until the solution turned clear and the particle size was <200 mn, or the particle size no longer reduced with continued sonication. The formulation was filtered through a 0.22p PVDF membrane filter into a depyrogenated glass vial and the resulting solution quantitated by RP-HPLC.
Aqueous formulations of compounds 1, 2, 3, 4, 5 and 6 were aliquoted into small depyrogenated vials for stability evaluation at temperatures of 2°-8° C., 25° C., and 40° C. This mirrors ICH stability temperature guidelines, but humidity was not controlled. A vial was pulled for each time point/temperature and analyzed by reverse-phase-HPLC (FIGS. 9-14) according to the following schedule starting from 2 weeks to up to 12 months.

[5] = Homo sapiens, 96 h, read-out: hPBMCs EC50 MIP-1β, Table 4d, one donor
[6] = Homo sapiens, read-out: hPBMCs EC50 RANTES, Table 4c, one donor
[7] = Homo sapiens, read-out: hPBMCs EC50 MIP-1β, Table 4b, Average of Donors 22, 5
[8] = Homo sapiens, read-out: hPBMCs EC50 MIP-1β, Table 4b, Donor 5
[9] = Homo sapiens, read-out: hPBMCs EC50 MIP-1β, Table 4b, Donor 22
[10] = Homo sapiens, read-out: hPBMCs EC50 RANTES, Table 4b, Average of Donors 22, 5
[11] = Homo sapiens, read-out: hPBMCs EC50 RANTES, Table 4b, Donor 5
[12] = Homo sapiens, read-out: hPBMCs EC50 RANTES, Table 4b, Donor 22
[13] = Homo sapiens, read-out: hPBMCs EC50 MIP-1β, Table 3a, Average of Donors 10, 5, 2
[14] = Homo sapiens, read-out: hPBMCs EC50 MIP-1β, Table 3a, Donor 2
[15] = Homo sapiens, read-out: hPBMCs EC50 MIP-1β, Table 3a, Donor 5
[16] = Homo sapiens, read-out: hPBMCs EC50 MIP-1β, Table 3a, Donor 10
[17] = Homo sapiens, read-out: hPBMCs EC50 RANTES, Table 3a, Average of Donors 10, 5, 2
[18] = Homo sapiens, read-out: hPBMCs EC50 RANTES, Table 3a, Donor 2
[19] = Homo sapiens, read-out: hPBMCs EC50 RANTES, Table 3a, Donor 5
[20] = Homo sapiens, read-out: hPBMCs EC50 RANTES, Table 3a, Donor 10

T1 sequence (O00206 24-839): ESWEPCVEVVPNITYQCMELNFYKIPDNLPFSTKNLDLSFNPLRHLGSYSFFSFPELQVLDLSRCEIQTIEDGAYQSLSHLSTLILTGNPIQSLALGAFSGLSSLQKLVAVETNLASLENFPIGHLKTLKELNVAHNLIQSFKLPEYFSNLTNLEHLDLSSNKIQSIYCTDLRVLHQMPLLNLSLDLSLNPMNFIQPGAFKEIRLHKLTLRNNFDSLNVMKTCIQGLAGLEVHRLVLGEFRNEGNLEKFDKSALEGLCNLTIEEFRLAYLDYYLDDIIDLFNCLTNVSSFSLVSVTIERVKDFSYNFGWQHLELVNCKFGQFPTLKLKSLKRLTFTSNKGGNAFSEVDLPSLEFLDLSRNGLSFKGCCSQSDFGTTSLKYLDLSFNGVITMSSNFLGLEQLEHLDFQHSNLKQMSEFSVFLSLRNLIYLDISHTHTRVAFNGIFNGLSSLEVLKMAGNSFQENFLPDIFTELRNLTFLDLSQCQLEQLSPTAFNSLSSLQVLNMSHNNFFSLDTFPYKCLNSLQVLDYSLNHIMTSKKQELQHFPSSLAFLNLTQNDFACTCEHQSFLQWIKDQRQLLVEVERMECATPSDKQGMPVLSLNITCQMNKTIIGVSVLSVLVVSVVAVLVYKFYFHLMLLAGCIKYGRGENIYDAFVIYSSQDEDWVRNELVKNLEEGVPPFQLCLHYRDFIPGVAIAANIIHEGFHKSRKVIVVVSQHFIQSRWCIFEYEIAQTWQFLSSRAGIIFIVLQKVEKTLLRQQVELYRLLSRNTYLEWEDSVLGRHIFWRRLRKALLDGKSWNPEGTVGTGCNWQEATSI
T1 sequence (Q9Y6Y9 17-160 limits assumed): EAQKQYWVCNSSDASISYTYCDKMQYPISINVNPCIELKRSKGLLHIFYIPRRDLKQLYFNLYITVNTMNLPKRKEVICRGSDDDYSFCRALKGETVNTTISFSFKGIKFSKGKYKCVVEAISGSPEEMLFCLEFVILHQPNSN

Molecule	EC50 (hTLR4; Table 1b) [nM]	EC50 (primary hPBMCs [1]; [7]) [nM]	EC50 (primary hPBMCs [1]; [8]) [nM]	EC50 (primary hPBMCs [1]; [9]) [nM]	adjuvant effect on flu-specific IgG2a antibody titers compared to antigen alone [3]	EC50 (primary hPBMCs [2]; [10]) [nM]	EC50 (primary hPBMCs [2]; [11]) [nM]	EC50 (primary hPBMCs [2]; [12]) [nM]	EC50 (primary hPBMCs [1]; [13]) [nM]	EC50 (primary hPBMCs [1]; [14]) [nM]	EC50 (primary hPBMCs [1]; [15]) [nM]	EC50 (primary hPBMCs [1]; [16]) [nM]	EC50 (mRAW264.7 cells) [nM]	EC50 (primary hPBMCs [2]; [17]) [nM]	EC50 (primary hPBMCs [2]; [18]) [nM]	EC50 (primary hPBMCs [2]; [19]) [nM]	EC50 (primary hPBMCs [2]; [20]) [nM]	EC50 (hMM6 cells) [nM]	EC50 (hTLR4; Table 1a) [nM]	also measured
CCCCCCCCCCC[C@H](CC(=O)NCCO[C@@H]1OC(CO)[C@@H](OP(=O)(O)O)C(NC(=O)C[C@@H](CCCCCCCCCCC)OC(=O)CCCCCCCc2ccccc2)C1NC(=O)C[C@@H](CCCCCCCCCCC)OC(=O)CCCCCCCc1ccccc1)OC(=O)CCCCCCCc1ccccc1 (stereo partly drawn) [Compound 8, 2-[(R)-3-(8-phenyl)octanoyloxytetradecanoylamino]ethyl 2,3-di-[(R)-3-(8-phenyl)octanoyloxytetradecanoylamino]-2,3-dideoxy-4-O-phosphono-β-D-allopyranoside triethylammonium Salt]	4.99																			EC50 (primary hPBMCs [1]; [5]): 0.0418 nM; EC50 (primary hPBMCs [2]; [6]): 0.0391 nM
CCCCCCCCCCC[C@H](CC(=O)NCCO[C@@H]1OC(CO)[C@@H](OP(=O)(O)O)C(NC(=O)C[C@@H](CCCCCCCCCCC)OC(=O)CCCCCCCc2ccccc2)C1NC(=O)C[C@@H](CCCCCCCCCCC)OC(=O)CCCCCCCCC)OC(=O)CCCCCCCCC (stereo partly drawn) [Compound 9, 2-[(R)-3-decanoyloxytetradecanoylamino]ethyl, 2-[(R)-3-decanoyloxytetradecanoylamino]-3-[(R)-3-(8-phenyl)octanoyloxytetradecanoylamino]-2,3-dideoxy-4-O-phosphono-β-D-allopyranoside triethylammonium salt]	15.7																			EC50 (primary hPBMCs [1]; [5]): 0.182 nM; EC50 (primary hPBMCs [2]; [6]): 0.143 nM
CCCCCCCCCCC[C@H](CC(=O)NC1[C@H](OC[C@H](NC(=O)C[C@@H](CCCCCCCCCCC)OCCCCCCCCCC)C(=O)O)OC(CO)[C@@H](OS(=O)(=O)O)[C@@H]1NC(=O)C[C@@H](CCCCCCCCCCC)OCCCCCCCCCC)OCCCCCCCCCC (stereo partly drawn) [Compound 5, N—[(R)-3-Decyloxytetradecanoyl]-O-[2,3-di-[(R)-3-decyloxytetradecanoylamino]-2,3-dideoxy-4-O-sulfoxy-β-D-allopyranosyl]-L-serine]	2.9	0.027	0.0151	0.039	dose dependent adjuvant effect	0.0238	0.0156	0.0319												
CCCCCCCCCCC[C@H](CC(=O)N[C@H]1[C@H](OC[C@H](NC(=O)C[C@@H](CCCCCCCCCCC)OC(=O)CCCCCCCCC)C(=O)OC)O[C@H](CO)[C@@H](OP(=O)(O)O)[C@H]1NC(=O)C[C@@H](CCCCCCCCCCC)OC(=O)CCCCCCCCC)OC(=O)CCCCCCCCC [Compound 3, N—[(R)-3-Decanoyloxytetradecanoyl]-O-[2,3-di-[(R)-3-decanoyloxytetradecanoylamino]-2,3-dideoxy-4-O-phosphono-β-D-allopyranosyl]-L-serine methyl ester]									0.0478	0.0314	0.0727	0.0394	0.0112	0.0719	0.0158	0.158	0.0417	0.462	3.95	
CCCCCCCCCCC[C@H](CC(=O)NC1C(NC(=O)C[C@@H](CCCCCCCCCCC)OCCCCCCCCCC)[C@H](OP(=O)(O)O)C(CO)O[C@H]1OC[C@H](NC(=O)C[C@@H](CCCCCCCCCCC)OCCCCCCCCCC)C(=O)O)OCCCCCCCCCC (stereo partly drawn) [Compound 4]	1.39	0.0137	0.0141	0.0133	dose dependent adjuvant effect	0.0185	0.0149	0.0221	0.0049	0.0059	0.0027	0.0062	0.0014	0.0083	0.0083	0.0081	0.0084	0.124	1.32	
N—[(R)-3-Decyloxytetradecanoyl]-O-[2,3-di-[(R)-3-decyloxytetradecanoylamino]-2,3-dideoxy-4-O-methylphosphono-β-D-allopyranosyl]-L-serine triethylammonium salt [Compound 7]	0.78				dose dependent adjuvant effect															EC50 (primary hPBMCs [1]; read-out: hPBMCs EC50 MIP-1β, Table 4b, Average of Donors 22, 5): 0.0083 nM; EC50 (primary hPBMCs [1]; read-out: hPBMCs EC50 MIP-1β, Table 4b, Donor 5): 0.0033 nM; EC50 (primary hPBMCs [1]; read-out: hPBMCs EC50 MIP-1β, Table 4b, Donor 22): 0.0133 nM; EC50 (primary hPBMCs [2]; read-out: hPBMCs EC50 RANTES, Table 4b, Average of Donors 22, 5): 0.006 nM; EC50 (primary hPBMCs [2]; read-out: hPBMCs EC50 RANTES, Table 4b, Donor 5): 0.0041 nM; EC50 (primary hPBMCs [2]; read-out: hPBMCs EC50 RANTES, Table 4b, Donor 22): 0.008 nM
CCCCCCCCCCC[C@H](CC(=O)NCCO[C@@H]1OC(CO)[C@@H](OCP(=O)(O)O)[C@H](NC(=O)C[C@@H](CCCCCCCCCCC)OC(=O)CCCCCCCCC)C1NC(=O)C[C@@H](CCCCCCCCCCC)OC(=O)CCCCCCCCC)OC(=O)CCCCCCCCC (stereo partly drawn) [Compound 6]	10.2	0.0791	0.036	0.122		0.174	0.238	0.109												
CCCCCCCCCCC[C@H](CC(=O)NCCO[C@@H]1O[C@H](CO)[C@@H](OP(=O)(O)O)[C@@H](NC(=O)C[C@@H](CCCCCCCCCCC)OC(=O)CCCCCCCCC)[C@H]1NC(=O)C[C@@H](CCCCCCCCCCC)OC(=O)CCCCCCCCC)OC(=O)CCCCCCCCC [Compound 1, 2-[(R)-3-decanoyloxytetradecanoylamino]ethyl 2,3-di-[(R)-3-decanoyloxytetradecanoylamino]-2,3-dideoxy-4-O-phosphono-β-D-allopyranoside]	19.7	0.18	0.0761	0.285		0.135	0.0899	0.179	0.0214	0.0198	0.0241	0.0202	0.0576	0.0205	0.0121	0.0254	0.0239	0.251	13.7	time with no degradation [4]: 6 weeks
